Numbers after ± are expanded uncertainties.
Settings: Crystal; visual observation

Normal melting temperature [°C]	Compound
91.7 ± 2.6	CC1=C(NCc2ccccc2)C(=O)c2ccccc2C1=O [2-(benzylamino)-3-methylnaphthalene-1,4-dione]
92.6 ± 1.6	CC1=C(NCCc2ccccc2)C(=O)c2ccccc2C1=O [3-(phenethylamino)-2-methylnaphthalene-1,4-dione]

Reference: the NIST ThermoML archive (doi:10.1016/j.jct.2016.08.016)
